Patent US12319913B2, “5-halouracil-modified microRNAs and their use in the treatment of cancer” (The Research Foundation for The State University of New York, priority 2018, dated 2025)
[5FU] = 5-fluorouracil base replacing uracil

What was measured:
[1] = biological target: T1, TS-FdUMP (Homo sapiens, UniProt P04818); experiment: Western blot of TS-FdUMP in colon cancer cells; format: cell-based; details: colon/colorectal cancer cells
T1 construct: endogenous in cells
Description: (§1) Western immunoblot analysis: Forty-eight hours after transfection, equal amounts of protein (15 μg) extracted from cells lysed in RIPA buffer with protease inhibitor (Sigma) and were separated on 10%-12% sodium dodecyl sulfate-polyacrylamide gels using standard procedures. The primary antibodies used for the analysis were rabbit anti-YAP1 monoclonal antibody (1:10000) (Cell Signaling Technologies), anti-DLCK1 (1:500) (Abcam), anti-BCL2 (1:500) (NeoMarkers), anti-MDC1 (1:500), anti-SUZ12 (1:500), anti-pChk-1 (1:500), anti beta-actin (1:500), anti-BMI-1 (1:10000) (Cell Signaling Technologies), mouse anti-human TS antibody (1:500), anti-α-tubulin (1:50000) (Santa Cruz Biotech Inc.), anti-GAPDH (1:100000) (Santa Cruz Biotech Inc.), anti-E2F3 (1:500) (Santa Cruz Biotech Inc.), Horseradish peroxidase-conjugated antibodies against mouse or rabbit (1:5000, Santa Cruz Biotech Inc.) were used as the secondary antibodies. Protein bands were visualized with autoradiography film using SuperSignal West Pico Chemiluminescent Substrate (Thermo Fischer). Western blot density was quantified using Image J software.

[2] = system: HCT-116 colon cancer cells; experiment: 5-FU treatment and cytotoxicity assay (WST-1); format: cell-based, human; details: 50 nM modified miR-129 vs 2 μM 5-FU
Description: 5-FU treatment and cytotoxicity assay: Twenty-four hours after transfection, cancer cells were plated in 96-well plates at 2×10^3 cells per well in triplicates in 100 μL of medium. After 24 hours, fresh medium containing 2 μM 5-FU alone, 50 nM native microRNA, 50 nM modified microRNA (e.g., modified miR-129), or a combination of […] with 50 nM a modified microRNA of the present disclosure e.g., modified miR-129, were added, and cells were cultured for an additional 72 hours. Cell viability was measured using the WST-1 assay.

[3] = system: HCT116, RKO, SW480, and SW620 colon cancer cells; experiment: FITC-Annexin V apoptosis assay; design: species or system human; details: FACS-based FITC-Annexin assay, all 4 colon cancer cell lines, compared to native miR-129 and negative control miRNA
Description: Apoptosis Assay. To distinguish between early and late apoptosis, a fluorescein isothiocyanate (FITC)—Annexin assay was done (Becton Dickinson). HCT116, RKO, SW480 and SW620 cells were plated into 6 well plates (1×10^5) cells per well, after 24 h, cells were transfected with 25 nM modified miRNAs using Oligofectamine. Forty-eight hours after transfection, cells were harvested, stained with propidium iodide and anti-annexin-V antibody (Annexin V-FITC Apoptosis Detection kit, Invitrogen, CA, USA) following the manufacturer's protocol, and stained cells were detected by flow cytometry.

[4] = system: Panc-1 pancreatic cancer cells; experiment: Cell proliferation, Panc-1; format: cell-based, human; details: for cell proliferation, dose dependence: PANC-1, 50 nM, 25 nM, 12.5 nM, 6.25 nM, and 3.125 nM
Description: […] For reagent free transfection, cells were plated in 6 well plates at (1×10^5) cells per well. Twenty-four hours later 100 pmol miRNA (Control, miR-15a, Mimic-1) were diluted in Optimem (Thermo Fischer) and added to the plate. Media was changed after 24 hours. Media was supplemented with 10% fetal bovine serum (Thermo Fischer). Briefly, cells were cultured in growth media (DMEM/F12 supplemented with B27, 10 ng/mL bFGF, and 20 ng/mL EGF (Life Technologies) in ultra-low attachment flasks) for up to 6 days. The spheroid cells were maintained by collection through gentle centrifugation, dissociation to single cells and replating.
(§2) Cell proliferation assay: Twenty-four hours after transfection, cells were seeded in 96-well plates at a density of 2000 cells per well. The cell proliferation assay was performed on days 1 to 5 by incubating 10 μl WST-1 (Roche Applied Science, Mannheim, Germany) in the culture medium for 1 h and reading the absorbance at 450 and 630 nm. The cell proliferation rate was calculated by subtracting the […]. Experiments for the cell proliferation assay were performed at least three times. The O.D. was calculated by subtracting the absorbance at 630 nm from that at 450 nm. Proliferation experiments were performed three times.

[5] = system: SKBR3 breast cancer cells; experiment: Cell proliferation, SKBR3; format: cell-based, human; details: SKBR3, compared to negative controls
Description: For transfections, 1×10^5 cells were plated in six-well plates and transfected with 100 nM of control non-specific miRNA (Thermo Fischer), a modified microRNA, or exogenous native microRNA after 24 hours using Oligofectamine (Thermo Fischer) following the manufacturer's protocols. For reagent free transfection, cells were plated in 6 well plates at (1×10^5) cells per well. Twenty-four hours later 100 pmol miRNA (Control, miR-15a, Mimic-1) were diluted in Optimem (Thermo Fischer) and added to the plate. Media was changed after 24 hours. Media was supplemented with 10% fetal bovine serum (Thermo Fischer). Briefly, cells were cultured in growth media (DMEM/F12 supplemented with B27, 10 ng/mL bFGF, and 20 ng/mL EGF (Life Technologies) in ultra-low attachment flasks) for up to 6 days. The spheroid cells were maintained by collection through gentle centrifugation, dissociation to single cells and replating.
as §2

[6] = system: YAP1, BMI1, DCLK1 and BCL2; experiment: Western blot of miR-15a targets in HCT-116 colon cancer stem cells; format: cell-based, human; details: three days following transfection
Description: as §1, with “[…],” for “Forty-eight hours after transfection,”, “software. […]” for “software.”

T1 sequence (P04818 2-313 limits assumed): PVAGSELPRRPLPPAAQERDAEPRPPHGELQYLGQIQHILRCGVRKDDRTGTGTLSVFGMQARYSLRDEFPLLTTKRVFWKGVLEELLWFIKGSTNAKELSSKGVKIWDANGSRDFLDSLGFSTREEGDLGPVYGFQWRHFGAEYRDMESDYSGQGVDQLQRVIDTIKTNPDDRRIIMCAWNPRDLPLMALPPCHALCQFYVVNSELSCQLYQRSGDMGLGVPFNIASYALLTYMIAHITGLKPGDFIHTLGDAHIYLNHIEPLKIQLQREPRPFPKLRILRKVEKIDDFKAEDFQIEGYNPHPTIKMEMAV

Substance	TS-FdUMP break down [1]	inhibiting tumor cell proliferation, potency compared with 5-FU [2]	induction of apoptosis [3]	cell proliferation, dose dependence [4]	breast cancer cell proliferation [5]	protein levels of YAP1, BMI1, DCLK1 and BCL2 [6]	inhibition of cell proliferation ([4]; Panc-1, compared to unmodified miR or negative controls)
CU^FU^FU^FU^FU^FGCGGU^FCU^FGGGCU^FU^FGC (CUUUUUGCGGUCUGGGCUUGC; RNA, [5FU] at 2, 3, 4, 5, 6, 11, 13, 18, 19, backbone not given here) [modified miR-129]	break downs TS-FdUMP significantly better than 5-FU alone	much more potent than 2 μM 5-FU	2 to 30 fold	inhibited in a dose dependent manner	inhibited		
U^FAGCAGCACAU^FAAU^FGGU^FU^FU^FGU^FG (UAGCAGCACAUAAUGGUUUGUG; RNA, [5FU] at 1, 11, 14, 17, 18, 19, 21, backbone not given here) [modified miR-15a]	break downs TS-FdUMP			inhibited in a dose dependent manner	inhibited	reduced	enhanced ability to inhibit
